SMILES strings stand for the structures.

For series [1], the target named is HER1 (ErbB1) (Homo sapiens, UniProt P00533). As to the kind of experiment: in vitro enzyme activity, HER1 (ErbB1). The settings on record: human ErbB1, [γ-33P]ATP, poly(Glu, Tyr) substrate. The format is biochemical. On the procedure: (§1) The purpose of this assay is to detect the in vitro inhibitory activity of compounds on HER1 (ErbB1), HER2 (ErbB2), and HER4 (ErbB4). The enzymes used in this assay are human ErbB1, ErbB2 and ErbB4. Eurofins Pharma Discovery Service provided the method for activity detection.
(§2) Steps and Method of the Assay (96-Well Plate):
(§3) A buffer solution of the test compounds in a dilution of 5-fold (5 μL), polypeptide substrate poly(Glu, Tyr) (4:1) (2.5 μL), ErbB (4-20 ng, 2.5 μL), MnCl2 (50 mM, 1.25 μL), dH2O (3.75 μL), and [γ-^33P]ATP (10 μL) were added, and incubated at 30° C. for 10 minutes. The reaction was terminated by adding 3% phosphoric acid. 10 μL of the sample was taken and transferred to Filtermate A. The filter disc was washed 3 times with 75 mM phosphoric acid and once with methanol. The filter disc was transferred to a sealed plastic bag and the scintillation mixture (4 mL) was added. The intensity of the emitted photon was detected by a scintillation luminescence counter. The CPM (times/min) of the enzyme sample was compared with the CPM of the internal control sample. The level of photon intensity reflected the degree of the tyrosine kinase activity.

Series [2] has as its target HER2 (ErbB2) (Homo sapiens, UniProt P04626). The series can be described thus: in vitro enzyme activity, HER2 (ErbB2). The class given is biochemical. The conditions noted are these: human ErbB2, [γ-33P]ATP, poly(Glu, Tyr) substrate. Here is the method: as §1, §2, §3
For series [3], the target named is HER4 (ErbB4) (Homo sapiens, UniProt Q15303). As to the kind of experiment: in vitro enzyme activity, HER4 (ErbB4). The format is biochemical. The conditions noted are these: human ErbB4, [γ-33P]ATP, poly(Glu, Tyr) substrate. Here is the method:
as §1, §2, §3

The test system of series [4] is NCI-N87 cell. As to the kind of experiment: inhibitory activity on cell proliferation (Cell-Titer-Glo), NCI-N87. The class given is cell-based. The settings on record: Homo sapiens. The text has this:
Purpose of the assay: to detect the inhibitory activity of the test compounds on cell proliferation.
Principle of the assay: the luciferase in a Cell-Titer-Glo reagent produces oxidized luciferin with luciferin, oxygen and ATP as reaction substrates, and releases energy in the form of light. Since the luciferase reaction requires ATP, the total amount of light generated by the reaction is proportional to the total amount of ATP that reflects cell viability.
Cell Titer-Glo cell viability assay kit with luminescence (Promega #G7573)
According to the schematic diagram of the cell seed plate, cells were seeded in a 384- or 96-well plate at a density of 1000 cells per well and 25 μL per well, and 25 μL of PBS was added to the wells near edge of the place where no cells were seeded.
(1) The stock solution of the compounds has a concentration of 10 mM, and the compounds were diluted with DMSO to an initial concentration of 4 mM. The compounds were added to the plate with stock solution of compounds, 9 μL per well.
(2) The compounds were diluted with an ECHO liquid workstation, where 125 nL of compounds were added to each well of the cell plate, 125 nL of DMSO was added to each of the cell well in columns 2 and 23, and 125 nL of DMSO was added to each PBS well in columns 1 and 24.
2.3 After addition of the compounds, the cell plate was centrifuged at 1000 rpm for 1 min, and then placed in a 37° C., 5% CO2 incubator for incubation for 3 days.
The cell plate was taken out from the incubator and equilibrated at room temperature for 30 minutes. 25 μL of Cell-Titer-Glo reagent was added to each well, shaken for one minute to allow well mixed, and centrifuged at 1000 rpm for 1 minute. After 10 minutes, the plate was read on PerkinElmer Envision, and the […] reading time was set to 0.2 second.

Series [5] has as its system subcutaneous xenograft tumor of human gastric cancer NCI-N87 cells. The class given is in vivo. The conditions noted are these: for Tumor volume (mm3) (Day 21) / T/C (%) / TGI (%): 3 mg/kg, NCI-N87 xenograft; for Tumor volume (mm3) (Day 21): Mean ± SEM; for T/C (%) / TGI (%): day 21; for body weight of test animals (reference index for drug toxicity): mouse, in vivo. Here is the method: Purpose of the assay: to evaluate the in vivo efficacy of compounds to be tested on subcutaneous xenograft tumor of human gastric cancer NCI-N87 cells in a BALB/c nude mouse model.
Animals of the assay: female BALB/c nude mice, 6-8 weeks old, weighted 18-22 grams; supplier: shanghai sippr bk laboratory animals Ltd.
Human gastric cancer NCI-N87 cells were cultured in monolayer in vitro. The culture conditions were RPMI-1640 medium plus 10% fetal bovine serum, 100 U/mL penicillin, 100 μg/mL streptomycin and 2 mM glutamine, 37° C., 5% CO2. The passaging was performed by the conventional digestion with trypsin-EDTA twice a week. When the cell saturation was 80%-90%, the cells were collected, counted and inoculated.
0.2 mL (10×10^6 cells) of NCI-N87 cells were inoculated subcutaneously on the right back of each nude mouse (PBS+Matrigel, 1:1). When the average tumor volume reached 145 mm^3, administration to each group was started.
The test compounds were formulated into a 0.3 mg/mL clear solution in the solvents of 10% NMP (N-methylpyrrolidone)+10% ethylene glycol stearate+80% water.
The assay index is to investigate whether tumor growth is inhibited, delayed or cured. Tumor diameter was measured twice a week with a vernier caliper. The calculation formula of tumor volume is: V=0.5a×b^2, wherein a and b represent the long and short diameters of tumor, respectively.
The antitumor efficacy of the compounds were evaluated by TGI (%) or relative tumor proliferation rate T/C (%). TGI (%) reflects the tumor growth inhibition rate. TGI (%) is calculated as follows: TGI (%)=[1−(average tumor volume at the end of administration for a certain treatment group−average tumor volume at the beginning of administration for this treatment group)/(average tumor volume at the end of treatment for a solvent control group−average tumor volume at the beginning of administration for this solvent control group)][…].
Relative tumor proliferation rate T/C (%): the calculation formula is as follows: T/C %=TRTV/CRTV (TRTV: RTV for the treatment group; CRTV: RTV for the negative control group). Relative tumor volume (RTV) is calculated based on tumor measurement results. The calculation formula is RTV=Vt/V0, wherein V0 is the average tumor volume measured at the beginning of administration (i.e., d0) to each group, Vt is the average tumor volume at a certain measurement, and the data for TRTV and CRTV were taken on the same day.
The tumor weight was measured after the assay is over and the T/C weight percentage was calculated. T weight and C weight represent the tumor weight of the administration group and the vehicle control group, respectively.
Statistical analysis included the mean and standard error (SEM) of tumor volume at each time point in each group. […] The comparison between two groups was analyzed by T-test, and the comparison among three or more groups was analyzed by one-way ANOVA. […] All data analysis was carried out with SPSS 17.0. p<0.05 was considered a significant difference.

[6] abbreviates: NCI-N87, footnote d: initial dilution concentration of compounds is 10 μM.
Where [7] appears, read: NCI-N87, 72 h, incubation for 3 days, Cell-Titer-Glo.

HER4 (ErbB4), sequence (Q15303 26-1308): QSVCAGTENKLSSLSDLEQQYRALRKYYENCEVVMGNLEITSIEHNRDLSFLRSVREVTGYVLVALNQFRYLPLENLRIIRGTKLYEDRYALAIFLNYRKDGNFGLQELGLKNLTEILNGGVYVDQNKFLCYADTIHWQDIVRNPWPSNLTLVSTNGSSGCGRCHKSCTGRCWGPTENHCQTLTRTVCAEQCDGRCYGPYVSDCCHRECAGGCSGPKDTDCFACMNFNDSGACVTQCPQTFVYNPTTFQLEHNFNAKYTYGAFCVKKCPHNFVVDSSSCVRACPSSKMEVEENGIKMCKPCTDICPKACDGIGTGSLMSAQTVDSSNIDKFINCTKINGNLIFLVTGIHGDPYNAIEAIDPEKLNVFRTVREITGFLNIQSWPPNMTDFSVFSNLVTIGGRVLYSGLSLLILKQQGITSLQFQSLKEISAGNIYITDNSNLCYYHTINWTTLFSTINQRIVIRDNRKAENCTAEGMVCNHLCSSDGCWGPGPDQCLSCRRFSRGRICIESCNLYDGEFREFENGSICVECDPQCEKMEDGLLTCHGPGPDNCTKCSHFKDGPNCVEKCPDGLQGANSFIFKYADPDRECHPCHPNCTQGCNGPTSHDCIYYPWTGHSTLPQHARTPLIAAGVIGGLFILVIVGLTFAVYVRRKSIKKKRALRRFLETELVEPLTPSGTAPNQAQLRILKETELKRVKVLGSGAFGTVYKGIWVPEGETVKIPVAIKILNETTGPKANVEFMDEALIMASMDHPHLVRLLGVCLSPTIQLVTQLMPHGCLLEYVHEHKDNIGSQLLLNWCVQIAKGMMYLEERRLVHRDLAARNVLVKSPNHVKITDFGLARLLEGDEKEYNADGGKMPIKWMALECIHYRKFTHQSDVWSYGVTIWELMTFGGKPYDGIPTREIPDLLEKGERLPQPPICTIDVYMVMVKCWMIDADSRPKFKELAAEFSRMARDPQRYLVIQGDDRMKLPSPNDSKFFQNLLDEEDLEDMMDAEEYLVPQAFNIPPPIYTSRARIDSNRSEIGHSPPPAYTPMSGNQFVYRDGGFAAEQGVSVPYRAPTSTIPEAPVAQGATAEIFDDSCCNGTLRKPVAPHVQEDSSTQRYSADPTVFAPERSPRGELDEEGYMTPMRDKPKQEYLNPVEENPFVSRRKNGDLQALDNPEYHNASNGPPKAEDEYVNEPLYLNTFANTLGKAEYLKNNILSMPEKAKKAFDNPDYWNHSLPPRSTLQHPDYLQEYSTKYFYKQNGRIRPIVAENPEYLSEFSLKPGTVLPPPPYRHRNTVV
HER1 (ErbB1), sequence (P00533 25-1210): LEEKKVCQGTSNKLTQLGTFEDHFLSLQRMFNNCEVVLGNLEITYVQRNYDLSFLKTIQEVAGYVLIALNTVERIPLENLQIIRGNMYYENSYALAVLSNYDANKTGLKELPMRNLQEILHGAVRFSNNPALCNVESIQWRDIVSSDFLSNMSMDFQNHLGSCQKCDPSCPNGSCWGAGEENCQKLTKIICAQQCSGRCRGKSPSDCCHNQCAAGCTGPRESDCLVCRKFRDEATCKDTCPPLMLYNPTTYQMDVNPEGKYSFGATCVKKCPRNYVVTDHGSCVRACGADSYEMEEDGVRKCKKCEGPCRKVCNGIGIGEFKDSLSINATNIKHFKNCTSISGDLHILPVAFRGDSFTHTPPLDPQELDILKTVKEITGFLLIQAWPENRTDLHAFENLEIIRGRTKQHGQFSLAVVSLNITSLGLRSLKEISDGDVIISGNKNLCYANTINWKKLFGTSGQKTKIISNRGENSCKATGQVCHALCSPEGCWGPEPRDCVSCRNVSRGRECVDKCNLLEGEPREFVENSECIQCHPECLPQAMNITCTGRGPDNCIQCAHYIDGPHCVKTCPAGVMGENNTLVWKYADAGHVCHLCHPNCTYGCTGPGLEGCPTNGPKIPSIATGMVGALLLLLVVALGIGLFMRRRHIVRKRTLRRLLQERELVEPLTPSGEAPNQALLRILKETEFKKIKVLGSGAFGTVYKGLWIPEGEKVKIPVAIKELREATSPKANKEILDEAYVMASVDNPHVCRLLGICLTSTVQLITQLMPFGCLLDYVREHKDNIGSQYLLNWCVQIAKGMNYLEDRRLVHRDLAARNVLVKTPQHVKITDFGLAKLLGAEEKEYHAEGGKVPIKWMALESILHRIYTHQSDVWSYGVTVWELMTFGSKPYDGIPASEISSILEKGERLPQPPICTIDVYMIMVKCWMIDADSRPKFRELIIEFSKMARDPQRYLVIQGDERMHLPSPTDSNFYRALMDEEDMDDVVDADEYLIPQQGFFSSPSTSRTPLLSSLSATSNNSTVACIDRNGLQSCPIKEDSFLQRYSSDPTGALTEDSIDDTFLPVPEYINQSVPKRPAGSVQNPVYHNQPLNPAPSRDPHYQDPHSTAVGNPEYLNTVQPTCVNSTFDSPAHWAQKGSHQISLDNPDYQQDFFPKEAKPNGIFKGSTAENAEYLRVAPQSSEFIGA
HER2 (ErbB2), sequence (P04626 23-1255): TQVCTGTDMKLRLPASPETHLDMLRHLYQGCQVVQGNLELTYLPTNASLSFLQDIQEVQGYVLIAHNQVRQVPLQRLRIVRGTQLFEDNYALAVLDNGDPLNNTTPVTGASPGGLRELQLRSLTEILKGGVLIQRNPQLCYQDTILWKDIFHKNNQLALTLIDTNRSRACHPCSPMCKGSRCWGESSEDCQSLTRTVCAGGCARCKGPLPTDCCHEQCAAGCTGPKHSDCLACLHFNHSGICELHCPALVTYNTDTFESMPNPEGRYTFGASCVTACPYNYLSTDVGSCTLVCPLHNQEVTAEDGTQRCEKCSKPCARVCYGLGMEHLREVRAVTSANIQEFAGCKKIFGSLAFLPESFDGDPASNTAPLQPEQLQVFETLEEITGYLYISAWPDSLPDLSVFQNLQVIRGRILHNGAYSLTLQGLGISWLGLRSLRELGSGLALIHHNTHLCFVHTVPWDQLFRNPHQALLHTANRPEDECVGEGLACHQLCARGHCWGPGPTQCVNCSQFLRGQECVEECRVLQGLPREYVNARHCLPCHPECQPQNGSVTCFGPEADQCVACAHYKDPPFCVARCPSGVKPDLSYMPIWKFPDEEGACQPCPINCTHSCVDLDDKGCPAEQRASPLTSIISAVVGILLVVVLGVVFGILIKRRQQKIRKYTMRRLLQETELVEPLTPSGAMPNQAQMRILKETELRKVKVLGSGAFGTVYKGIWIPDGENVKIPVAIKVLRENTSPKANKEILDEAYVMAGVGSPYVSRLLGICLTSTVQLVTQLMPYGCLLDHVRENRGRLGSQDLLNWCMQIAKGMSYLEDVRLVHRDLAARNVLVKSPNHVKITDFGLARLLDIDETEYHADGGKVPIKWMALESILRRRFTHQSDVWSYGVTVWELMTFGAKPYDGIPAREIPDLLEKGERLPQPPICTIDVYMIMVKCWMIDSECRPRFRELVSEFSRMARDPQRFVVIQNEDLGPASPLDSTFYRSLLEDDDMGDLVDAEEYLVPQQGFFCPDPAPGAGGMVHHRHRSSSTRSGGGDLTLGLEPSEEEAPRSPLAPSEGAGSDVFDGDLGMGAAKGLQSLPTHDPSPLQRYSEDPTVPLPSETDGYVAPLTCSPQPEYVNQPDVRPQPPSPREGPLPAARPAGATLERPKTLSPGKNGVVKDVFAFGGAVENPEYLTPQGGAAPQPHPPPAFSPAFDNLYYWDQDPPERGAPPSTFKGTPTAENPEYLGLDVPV

Usually IC50 stands for the concentration needed to halve the response being measured. High values mean weaker potency in that assay, low ones greater potency in that assay. The compound `C=CC(=O)N1C[C@H]2C[C@@H](C1)[C@H]2Oc1cc2c(Nc3ccc(Cl)c(Cl)c3F)ncnc2cc1OC` [Example 1] came in with a half-maximal inhibitory concentration (IC50) in series [1] of 2 nM. The half-inhibitory concentration (IC50) in series [2] came out at 3 nM. The same compound gave a 50% inhibitory concentration (IC50) in series [3] of 10 nM. The IC50 in series [4] (setting [6]) is less than 1.5 nM. Moreover, in series [5], the “Tumor volume (mm3) (Day 21)” value is 122 ± 11 mm3, the “T/C (%)” value is recorded as 16.62%, the “TGI (%)” value worked out at 103.98% and the “body weight of test animals (reference index for drug toxicity)” value was “significantly better than that of the control compound Poziotinib”.
Turning to `C=CC(=O)N1C[C@H]2C[C@@H](C1)[C@H]2Oc1cc2c(Nc3ccc(F)c(Cl)c3)ncnc2cc1OC` [Example 3], the concentration for half-maximal inhibition (IC50) in series [1] stood at 2 nM; in series [2], 5 nM; in series [3], 17 nM.
The like results for `C=CC(=O)N1C[C@H]2C[C@@H](C1)[C@H]2Oc1cc2c(Nc3ccc(C#N)c(Cl)c3)ncnc2cc1OC` [Example 4] were, in that order, 2 nM, 3 nM and 13 nM.
`C=CC(=O)N1C[C@H]2C[C@@H](C1)[C@H]2Oc1cc2c(Nc3cccc(Cl)c3F)ncnc2cc1OC` [Example 5]: the IC50 in series [1] is 9 nM; in series [2], 24 nM; in series [3] it was 157 nM.
Taken in the same sequence, the figures for `C=CC(=O)N1C[C@H]2C[C@@H](C1)[C@H]2Oc1cc2c(Nc3ccc(OC(F)(F)F)c(Cl)c3)ncnc2cc1OC` [Example 6] were 2 nM, 4 nM and 17 nM.
`C=CC(=O)N1[C@@H]2CC[C@H]1C[C@@H](Oc1cc3c(Nc4ccc(Cl)c(Cl)c4F)ncnc3cc1OC)C2` [Example 7] returned an IC50 in series [1] of 40 nM. In series [2], this compound displayed a 50% inhibitory concentration (IC50) of 69 nM. In addition, the half-maximal inhibitory concentration (IC50) in series [3] turned out to be 61 nM. Inhibition in series [4] (setting [6]) was half-maximal at 1.5 nM (IC50). Moreover, in series [5], the “Tumor volume (mm3) (Day 21)” value is on record as 188 ± 9 mm3, the “T/C (%)” value amounted to 26.10%, the “TGI (%)” value turned out to be 92.63% and the “body weight of test animals (reference index for drug toxicity)” value was “significantly better than that of the control compound Poziotinib”.
Turning to `C=CC(=O)N1[C@@H]2CC[C@H]1C[C@H](Oc1cc3c(Nc4ccc(Cl)c(Cl)c4F)ncnc3cc1OCC(F)(F)F)C2` [Example 20], the IC50 in series [1] was found to be 18 nM; in series [2], 11 nM; in series [3], 10 nM; in series [4] (setting [7]), 0.6 nM.
As for `C=CC(=O)N1[C@@H]2CC[C@H]1C[C@H](Oc1cc3c(Nc4ccc(Cl)c(Cl)c4F)ncnc3cc1OCCOC)C2` [Example 22], the IC50 was 12 nM in series [1], 7 nM in series [2] and 3 nM in series [3].
As to `C=CC(=O)N1[C@@H]2CC[C@H]1C[C@H](Oc1cc3c(Nc4ccc(Cl)c(Cl)c4F)ncnc3cc1OCC(=O)NC)C2` [Example 23], the half-inhibitory concentration (IC50) in series [1] stood at 8 nM; in series [2] it was 4 nM; in series [3] it was 2 nM; in series [4] (setting [7]), 0.14 nM.
The like results for `C=CC(=O)N1[C@@H]2CC[C@H]1C[C@H](Oc1cc3c(Nc4ccc(Cl)c(Cl)c4F)ncnc3cc1OCCCN1CCOCC1)C2` [Example 24] were, in that order, 10 nM, 6 nM, 3 nM and 0.17 nM.
The like results for `C=CC(=O)N1[C@@H]2CC[C@H]1C[C@H](Oc1cc3c(Nc4ccc(Cl)c(Cl)c4F)ncnc3cc1OCCO)C2` [Example 25] were, in that order, 6 nM, 3 nM, 6 nM and 0.19 nM.
As to `C=CC(=O)N1[C@@H]2CC[C@H]1C[C@H](Oc1cc3c(Nc4ccc(Cl)c(Cl)c4F)ncnc3cc1O[C@H]1CCOC1)C2` [Example 26], the 50% inhibitory concentration (IC50) in series [1] worked out at 8 nM; in series [2] it was 5 nM; in series [3], 4 nM; in series [4] (setting [7]), 0.24 nM.
On to `C=CC(=O)N1[C@@H]2CC[C@H]1C[C@H](Oc1cc3c(Nc4ccc(Cl)c(Cl)c4F)ncnc3cc1O[C@@H]1CCOC1)C2` [Example 27], for which the IC50 in series [1] is 16 nM; in series [2] it was 5 nM; in series [3], 3 nM; in series [4] (setting [7]) it was 0.31 nM.
Take `C=CC(=O)N1[C@@H]2CC[C@H]1C[C@H](Oc1cc3c(Nc4ccc(Cl)c(Cl)c4)ncnc3cc1OC)C2` [Example 32]: the IC50 in series [1] amounted to 15 nM; in series [2], 5 nM; in series [3], 3 nM; in series [4] (setting [7]), 0.29 nM.
Turning to `C=CC(=O)N1[C@@H]2CC[C@H]1C[C@H](Oc1cc3c(Nc4cccc(Cl)c4F)ncnc3cc1OC)C2` [Example 33], the IC50 in series [1] was determined as 7 nM; in series [2] it was 6 nM; in series [3], 3 nM.
With `C=CC(=O)N1[C@@H]2CC[C@H]1C[C@H](Oc1cc3c(Nc4ccc(F)c(Cl)c4)ncnc3cc1OC)C2` [Example 40], the half-inhibitory concentration (IC50) was found to be 11 nM in series [1], 5 nM in series [2], 2 nM in series [3] and 0.34 nM in series [4] (setting [7]).
`C=CC(=O)N1[C@@H]2CC[C@H]1C[C@H](Oc1cc3c(Nc4ccc(Cl)c(Cl)c4F)ncnc3cc1OC1COC1)C2` [Example 42] came in with an IC50 in series [4] (setting [7]) of 0.92 nM. This lies in the sub-nanomolar range.
As for `C=CC(=O)N1[C@@H]2CC[C@H]1C[C@H](Oc1cc3c(Nc4ccc(Cl)c(Cl)c4F)ncnc3cc1OCCCO)C2` [Example 44], the IC50 in series [1] came to 5 nM; in series [2], 4 nM; in series [3], 3 nM; in series [4] (setting [7]) it was 0.33 nM.
As to `C=CC(=O)N1[C@@H]2CC[C@H]1C[C@H](Oc1cc3c(Nc4ccc(Cl)c(Cl)c4F)ncnc3cc1OCCC(C)(C)O)C2` [Example 45], the half-maximal inhibitory concentration (IC50) in series [1] came to 8 nM; in series [2] it was 7 nM; in series [3], 10 nM; in series [4] (setting [7]), 0.69 nM.

Source of the values: patent US20210078958A1, “QUINAZOLINE DERIVATIVE AND USE THEREOF” (MEDSHINE DISCOVERY INC., priority 2017, published 2021).
